Laboratory results taken from patent US4195171A, “Derivatives of an antibiotic XK-62-2 and process for the production thereof” (Abbott Laboratories, priority 1975, dated 1980).
≈ marks a conversion by molar mass, not a printed value. Where two headings read alike, the source gives them in different places.

Tests used:
Experiment in all cases: Antibacterial spectrum, MIC by agar dilution method
Format in all cases: cell-based
[1] = test system: Escherichia coli Juhl; conditions: pH 7.2, read-out: Minimum Inhibitory Concentration
Description: (§1) XK-62-2, 1-N-[L-(-)-α-hydroxy-γ-aminobutyryl] XK-62-2, Compounds (I-1), (I-2), (II-1) and (II-2) against various Gram-negative and Gram-positive bacteria determined by agar dilution method at pH 7.2.

[2] = test system: Escherichia coli T-2; conditions: T2, pH 7.2, read-out: Minimum Inhibitory Concentration
Description: as §1

[3] = test system: Escherichia coli T-5; conditions: T5, agar dilution, pH 7.2, read-out: Minimum Inhibitory Concentration
Description: as §1

[4] = test system: Klebsiella pneumoniae No. 8045; conditions: pH 7.2, read-out: Minimum Inhibitory Concentration
Description: as §1

[5] = test system: Proteus mirabilis 1287; conditions: pH 7.2, read-out: Minimum Inhibitory Concentration
Description: as §1

[6] = test system: Proteus morganii KY 4298; conditions: Morganella morganii
Description: as §1

[7] = test system: Proteus rettgeri KY 4288; conditions: Providencia rettgeri, KY4288, pH 7.2, read-out: Minimum Inhibitory Concentration
Description: as §1

[8] = test system: Proteus vulgaris 6897; conditions: pH 7.2, read-out: Minimum Inhibitory Concentration
Description: as §1

[9] = test system: Pseudomonas aeruginosa BMH 10; conditions: BMH10, pH 7.2, read-out: Minimum Inhibitory Concentration
Description: as §1

[10] = test system: Pseudomonas aeruginosa BMH 1; conditions: BMH1, pH 7.2, read-out: Minimum Inhibitory Concentration
Description: as §1

[11] = test system: Pseudomonas aeruginosa E-2
Description: as §1

[12] = test system: Pseudomonas aeruginosa NC-5
Description: as §1

[13] = test system: Pseudomonas aeruginosa No. 12; conditions: pH 7.2, read-out: Minimum Inhibitory Concentration
Description: as §1

[14] = test system: Salmonella enteritidis G-14; conditions: Salmonella enterica, pH 7.2, read-out: Minimum Inhibitory Concentration
Description: as §1

[15] = test system: Salmonella typhimurium E-9; conditions: Salmonella enterica, pH 7.2, read-out: Minimum Inhibitory Concentration
Description: as §1

[16] = test system: Sarcina lutea ATCC 9341; conditions: Micrococcus luteus, ATCC9341, pH 7.2, read-out: Minimum Inhibitory Concentration
Description: as §1

[17] = test system: Serratia sp T-55; conditions: T55, agar dilution, pH 7.2, read-out: Minimum Inhibitory Concentration
Description: as §1

[18] = test system: Shigella sonnei ATCC 9290; conditions: ATCC9290, pH 7.2, read-out: Minimum Inhibitory Concentration
Description: as §1

[19] = test system: Staphylococcus aureus 209 P; conditions: pH 7.2, read-out: Minimum Inhibitory Concentration
Description: as §1

[20] = test system: Staphylococcus aureus Smith; conditions: pH 7.2, read-out: Minimum Inhibitory Concentration
Description: as §1

[21] = test system: Streptococcus faecalis ATCC 10541; conditions: Enterococcus faecalis, ATCC10541, pH 7.2, read-out: Minimum Inhibitory Concentration
Description: as §1

[22] = test system: bacillus subtilis ATCC 6633; conditions: ATCC6633, pH 7.2, read-out: Minimum Inhibitory Concentration
Description: as §1

[23] = test system: Escherichia coli KY 8348; conditions: KY8348, pH 7.2, strain produces gentamicin acetyltransferase Type I, read-out: Minimum Inhibitory Concentration
Description: as §1
(§2) ^2 produces gentamicin acetyltransferase Type I

[24] = test system: Pseudomonas aeruginosa KY 8511; conditions: KY8511, pH 7.2, strain produces gentamicin acetyltransferase Type I, read-out: Minimum Inhibitory Concentration
Description: as §1, §2

[25] = test system: Escherichia coli KY 8320; conditions: KY8320, pH 7.2, strain produces neomycinkanamycin phosphotransferase Type I, read-out: Minimum Inhibitory Concentration
Description: as §1
(§3) ^3 produces neomycinkanamycin phosphotransferase Type I

[26] = test system: Escherichia coli KY 8349; conditions: KY8349, pH 7.2, strain produces neomycinkanamycin phosphotransferase Type I, read-out: Minimum Inhibitory Concentration
Description: as §1, §3

[27] = test system: Pseudomonas aeruginosa KY 8518; conditions: KY8518, pH 7.2, strain produces neomycinkanamycin phosphotransferase Type I, read-out: Minimum Inhibitory Concentration
Description: as §1, §3

[28] = test system: Escherichia coli KY Z-338; conditions: KYZ338, pH 7.2, strain produces gentamicin adenyltransferase, read-out: Minimum Inhibitory Concentration
Description: as §1
(§4) ^4 produces gentamicin adenyltransferase

[29] = test system: Klebsiella pneumoniae Y-58; conditions: Y58, pH 7.2, strain produces gentamicin adenyltransferase, read-out: Minimum Inhibitory Concentration
Description: as §1, §4

[30] = test system: Klebsiella pneumoniae Y-60; conditions: Y60, pH 7.2, strain produces gentamicin adenyltransferase, read-out: Minimum Inhibitory Concentration
Description: as §1, §4

[31] = test system: Escherichia coli KY 8321; conditions: KY8321, pH 7.2, strain produces gentamicin adenyltransferase and neomycinkanamycin phosphotransferase Type II, read-out: Minimum Inhibitory Concentration
Description: as §1
^5 produces gentamicin adenyltransferase and neomycinkanamycin
phosphotransferase Type II

[32] = test system: Pseudomonas aeruginosa KY 8512; conditions: KY8512, pH 7.2, strain produces neomycinkanamycin phosphotransferase Type I and Type II, read-out: Minimum Inhibitory Concentration
Description: as §1
^6 produces neomycinkanamycin phosphotransferase Type I and Type II

[33] = test system: Providencia sp. 164; conditions: pH 7.2, strain produces gentamicin acetyltransferase Type II, read-out: Minimum Inhibitory Concentration
Description: as §1
^9 produces gentamicin acetyltransferase Type II

Compound | MIC [2] [µg/mL] | MIC [3] [µg/mL] | MIC [4] [µg/mL] | MIC [5] [µg/mL] | MIC [7] [µg/mL] | MIC [8] [µg/mL] | MIC [9] [µg/mL] | MIC [10] [µg/mL] | MIC [13] [µg/mL] | MIC [15] [µg/mL] | MIC [16] [µg/mL] | MIC [17] [µg/mL] | MIC [18] [µg/mL] | MIC [19] [µg/mL] | MIC [20] [µg/mL] | MIC [21] [µg/mL] | MIC [22] [µg/mL] | MIC [23] [µg/mL] | MIC [24] [µg/mL] | MIC [25] [µg/mL] | other results
CNCC1CCC(N)C(OC2C(N)CC(NC(=O)C(O)CN)C(OC3OCC(C)(O)C(N)C3O)C2O)O1 (racemic) [II-1, 3"-N-demethyl-1-N-(DL-α-hydroxy-β-aminopropionyl) XK-62-2] | 1.56 (≈ 2.91 µM) | 1.56 (≈ 2.91 µM) | 0.78 (≈ 1.45 µM) | 25 (≈ 46.6 µM) | 1.56 (≈ 2.91 µM) | 12.5 (≈ 23.3 µM) | 0.4 (≈ 0.745 µM) | 1.56 (≈ 2.91 µM) | 0.78 (≈ 1.45 µM) | 0.78 (≈ 1.45 µM) | 1.56 (≈ 2.91 µM) | 1.56 (≈ 2.91 µM) | 3.12 (≈ 5.81 µM) | 0.4 (≈ 0.745 µM) | 0.4 (≈ 0.745 µM) | 25 (≈ 46.6 µM) | 0.2 (≈ 0.373 µM) | 0.4 (≈ 0.745 µM) | 1.56 (≈ 2.91 µM) | 1.56 (≈ 2.91 µM) | MIC [1]: 3.12 µg/mL (≈ 5.81 µM); MIC ([6]; KY4298, pH 7.2, read-out: Minimum Inhibitory Concentration): 3.12 µg/mL (≈ 5.81 µM); MIC ([11]; E2, pH 7.2, read-out: Minimum Inhibitory Concentration): 3.12 µg/mL (≈ 5.81 µM); MIC ([12]; NC5, pH 7.2, read-out: Minimum Inhibitory Concentration): 3.12 µg/mL (≈ 5.81 µM); MIC [14]: 3.12 µg/mL (≈ 5.81 µM); MIC [26]: 0.4 µg/mL (≈ 0.745 µM); MIC [27]: 1.56 µg/mL (≈ 2.91 µM); MIC [28]: 0.78 µg/mL (≈ 1.45 µM); MIC [29]: 0.78 µg/mL (≈ 1.45 µM); MIC [30]: 1.56 µg/mL (≈ 2.91 µM); MIC [31]: 1.56 µg/mL (≈ 2.91 µM); MIC [32]: 1.56 µg/mL (≈ 2.91 µM); MIC [33]: 25 µg/mL (≈ 46.6 µM)
CNCC1CCC(N)C(OC2C(N)CC(NC(=O)C(O)CCN)C(OC3OCC(C)(O)C(NC)C3O)C2O)O1 (single isomer, unassigned) [1-N-[L-(-)-α-hydroxy-γ-aminobutyryl] XK-62-2, reference compound] | 0.4 (≈ 0.708 µM) | 0.4 (≈ 0.708 µM) | 0.2 (≈ 0.354 µM) | 12.5 (≈ 22.1 µM) | 0.78 (≈ 1.38 µM) | 1.56 (≈ 2.76 µM) | 0.4 (≈ 0.708 µM) | 0.78 (≈ 1.38 µM) | 0.4 (≈ 0.708 µM) | 0.2 (≈ 0.354 µM) | 0.2 (≈ 0.354 µM) | 0.78 (≈ 1.38 µM) | 0.78 (≈ 1.38 µM) | 0.4 (≈ 0.708 µM) | 0.1 (≈ 0.177 µM) | 6.25 (≈ 11.1 µM) | 0.1 (≈ 0.177 µM) | 0.1 (≈ 0.177 µM) | 1.56 (≈ 2.76 µM) | 0.2 (≈ 0.354 µM) | MIC ([1]; agar dilution): 0.4 µg/mL (≈ 0.708 µM); MIC ([6]; KY4298, agar dilution, pH 7.2, read-out: Minimum Inhibitory Concentration): 0.78 µg/mL (≈ 1.38 µM); MIC ([11]; E2, agar dilution, pH 7.2, read-out: Minimum Inhibitory Concentration): 3.12 µg/mL (≈ 5.53 µM); MIC ([12]; NC5, agar dilution, pH 7.2, read-out: Minimum Inhibitory Concentration): 3.12 µg/mL (≈ 5.53 µM); MIC ([14]; agar dilution): 3.12 µg/mL (≈ 5.53 µM); MIC [26]: 0.1 µg/mL (≈ 0.177 µM); MIC [27]: 1.56 µg/mL (≈ 2.76 µM); MIC [28]: 0.2 µg/mL (≈ 0.354 µM); MIC [29]: 0.2 µg/mL (≈ 0.354 µM); MIC [30]: 0.2 µg/mL (≈ 0.354 µM); MIC [31]: 0.2 µg/mL (≈ 0.354 µM); MIC [32]: 1.56 µg/mL (≈ 2.76 µM); MIC [33]: 6.25 µg/mL (≈ 11.1 µM)
